Measurements taken from PMC7381750, “JP1 suppresses proliferation and metastasis of melanoma through MEK1/2 mediated NEDD4L-SP1-Integrin αvβ3 signaling” (Theranostics, 2020).
Values joined by “and” are separate entries in the source; they are usually repeats but may differ in a detail not shown here. Equal entries are not always repeated. Non-standard residues stand in square brackets, D forms with d. Residues, ends and D or L forms follow the SMILES beside them. pS = N[C@@H](COP(=O)(O)O)C(=O)O

Experiments:
[1] = test system: B16F10 cell; test: B16F10 melanoma-bearing model, JP1 and DTIC alone or in combination; assay type: in vivo, mouse; settings: 50 mg/kg JP1 combined with 40 mg/kg DTIC
Method: (A-C) (A) Schematic representation of the B16F10 and MEWO cells melanoma-bearing model for JP1 treatment (n = 6 per group). JP1 and its control agents were administered by intraperitoneal injection. […] (D-G) (D) Schematic representation of the B16F10 cell melanoma passive metastasis model for JP1 treatment. JP1 and its control agents were administered by intraperitoneal injection. […] (F) The representative melanoma lung metastatic images by H&E-staining (scale bars, 1000 μm). […] (J-L) (J) Schematic representation of the B16F10 cell melanoma-bearing model (n= 6 per group). Both JP1 and DTIC alone or in combination treatments and relative control was administered by intraperitoneal injection in mice.
The chemotherapeutic agent dacarbazine (DTIC) is currently as the first line drug used to treat metastatic melanoma in clinic, and was reported to cause painful symptoms and acquired resistance, compromising patient quality of life. To determine the possibility as a combination therapy between DTIC and JP1, we completed a joint treatment of DTIC and JP1 for melanoma tumor-bearing model (Figure 2J).

[2] = 14-day cynomolgus monkey toxicity test (overall); assay type: in vivo
Method: The test was completed by Suzhou Xishan Zhongke Drugs Research and Development Co., Ltd. (Xishan, Suzhou, China). The study proposal was approved by the Institute Animal Care and Use Committee (IACUC, ID19012912). Cynomolgus monkeys (3-4 years old) were randomly divided into three groups (n = 4 per group, half male and female); and the monkeys were treated with solvent control (Mannitol in saline, 75 mg/kg/d), JP1 (45 mg/kg/day) and JP1 (150 mg/kg/day) for 14 days. The experiment was ended on 15th day and the animals were euthanasia. The relevant clinical parameters were determined on 7th and 13th day, respectively. […]
The JP1 was provided by Hybio Pharmaceutical Co., Ltd. (Shenzhen, China); the production of small packaging preparation (100 mg/vial in freeze-dried powder, purity > 98%; -20 °C for storage and transportation) was completed under strict GMP conditions and quality control procedures for biological preparations. […] The relevant clinical indicators including symptoms, body weight, food intake, temperature, ophthalmology, electrocardiogram, blood routine examination, blood biochemistry, blood coagulation, urinalysis, immunotoxicity were determined on 7th and 13th, respectively. […]
(§1) indicators in all animals, and the pathological observation of organs was not determined. […]

[3] = Cynomolgus monkey toxicity test: blood routine examination; assay type: in vivo
Method: (§2) The test was completed by Suzhou Xishan Zhongke Drugs Research and Development Co., Ltd. (Xishan, Suzhou, China). The study proposal was approved by the Institute Animal Care and Use Committee (IACUC, ID19012912). Cynomolgus monkeys (3-4 years old) were randomly divided into three groups (n = 4 per group, half male and female); and the monkeys were treated with solvent control (Mannitol in saline, 75 mg/kg/d), JP1 (45 mg/kg/day) and JP1 (150 mg/kg/day) for 14 days. The experiment was ended on 15th day and the animals were euthanasia. The relevant clinical parameters were determined on 7th and 13th day, respectively. The observed parameters were including clinical symptoms, weight, food intake, body temperature, ophthalmology, electrocardiogram, blood routine examination, blood biochemistry, blood coagulation, urinalysis, immunotoxicity.
(§3) Supplementary database files: Cynomolgus monkey toxicity test […]
(§4) The study was conducted by a contract service in Suzhou Xishan Zhongke Drugs Research and Development Co., Ltd. (Xishan, Suzhou, China). All the use of animals were approved by the Institute Animal Care and Use Commttee, IACUC. IACUC no. :
(§5) ID19012912. The veterinarian will supervise the breeding and welfare of the animals. The company follows the Guide for the Care and Use of Laboratory Animals (8th ed., 2011).
(§6) Cynomolgus monkeys (3-4 years old) were randomly divided into three groups (n = 4 per group, two males and two females for each group); and treated q.d./i.v. with Mannitol (75 mg/kg/d in saline), JP1 (45 mg/kg/d) and JP1 (150 mg/kg/d) for 14 days, respectively. JP1 was dissolved in saline (100 mg/2 ml) and administered intravenously at a rate of 3 ml/min.
(§7) The JP1 was provided by Hybio Pharmaceutical Co., Ltd. (Shenzhen, China); the production of small packaging preparation (100 mg/vial in freeze-dried powder, purity > 98%; -20 °C for storage and transportation) was completed under strict GMP conditions and quality control procedures for biological preparations. No recovery period was set for this test; the experimental model was ended on 15th day. The relevant clinical indicators including symptoms, body weight, food intake, temperature, ophthalmology, electrocardiogram, blood routine examination, blood biochemistry, blood coagulation, urinalysis, immunotoxicity were determined on 7th and 13th, respectively. […]
as §1
(§8) relevant clinical indicators in two JP1 groups were no difference compared with those in […]
(§9) Level (NOAEL) of JP1 was 150 mg/kg.

[4] = Cynomolgus monkey toxicity test: blood coagulation; assay type: in vivo
Method: as §2, §3, §4, §5, §6, §7, §1, §8, §9

[5] = Cynomolgus monkey toxicity test: immunotoxicity; assay type: in vivo
Method: as §2, §3, §4, §5, §6, §7, §1, §8, §9

[6] = JP1 45 mg/kg/d i.v., D7, monkeys 1105,1106,2107,2108, 45 mg/kg/day
[7] = JP1 45 mg/kg/d i.v., D13, monkeys 1105,1106,2107,2108, 45 mg/kg/day
[8] = JP1 150 mg/kg/d i.v., D7, monkeys 1209,1210,2211,2212
[9] = JP1 150 mg/kg/d i.v., D7, monkeys 1209,1210,2211,2212, 150 mg/kg/day
[10] = JP1 150 mg/kg/d i.v., D13, monkeys 1209,1210,2211,2212, 150 mg/kg/day

Compound: CC(=O)N[C@@H](Cc1ccccc1)C(=O)N1CCC[C@H]1C(=O)NCC(=O)N[C@@H](COP(=O)(O)O)C(=O)N[C@@H](CC(=O)O)C(=O)N[C@@H](CCCNC(=N)N)C(=O)N[C@@H](Cc1ccccc1)C(=O)NCC(=O)NCC(=O)NCC(=O)NCC(=O)N[C@@H](CCCNC(=N)N)C(=O)NCC(=O)N[C@@H](CC(=O)O)C(N)=O [JP1] (Ac-FPG[pS]DRFGGGGRGD-NH2)
- body weight curve [1]: stable
- liver injury ([1]; compared to DTIC alone): without obvious liver injury
- changes in detected parameters (clinical symptoms, weight, food intake, body temperature, ophthalmology, ECG, blood, urinalysis, immune-toxicity) ([2]; I.V. 45 or 150 mg/kg/day for 14 days, compared to control): no significant changes in all detected parameters
- NOAEL at 14 days ([2]; both sexes, in vivo, iv, 14 days, read-out: no observed adverse effect level (NOAEL)): 150 mg/kg
- BASO % [3, 6]: 0.1% and 0.0%
- EO % [3, 6]: 0.4% and 0.0% and 0.9% and 0.5%
- HCT [3, 6]: 34.5% and 36.0% and 39.6% and 37.9%
- HGB [3, 6]: 118 g/L and 111 g/L and 119 g/L and 104 g/L
- LYMPH % [3, 6]: 17.9% and 15.8% and 30.8% and 26.7%
- MCH [3, 6]: 23.1 pg and 24.5 pg and 23.4 pg and 23.2 pg
- MCHC [3, 6]: 311 g/L and 308 g/L and 301 g/L
- MCV [3, 6]: 79.5 fL and 77.0 fL and 78.0 fL and 74.3 fL
- MONO % [3, 6]: 2.6% and 2.2% and 3.8% and 2.0%
- NEUT % [3, 6]: 81.6% and 79.8% and 64.5% and 70.2%
- NEUT# [3, 6]: 9.22 109/L and 12.27 109/L and 11.67 109/L and 7.64 109/L
- PLT [3, 6]: 476 109/L and 539 109/L and 485 109/L and 393 109/L
- RBC [3, 6]: 5.10 1012/L and 4.53 1012/L and 5.08 1012/L and 4.48 1012/L
- RET% [3, 6]: 0.68% and 2.83% and 1.78% and 2.67%
- WBC [3, 6]: 15.04 109/L and 11.55 109/L and 18.07 109/L and 10.87 109/L
- BASO % [3, 7]: 0.0% and 0.1%
- EO % [3, 7]: 1.2% and 1.9% and 0.3% and 2.5%
- HCT [3, 7]: 40.1% and 36.5% and 39.2% and 42.2%
- HGB [3, 7]: 121 g/L and 113 g/L and 115 g/L and 127 g/L
- LYMPH % [3, 7]: 39.5% and 40.7% and 28.2% and 42.7%
- MCH [3, 7]: 25.3 pg and 23.1 pg and 23.9 pg and 23.3 pg
- MCHC [3, 7]: 302 g/L and 310 g/L and 293 g/L and 301 g/L
- MCV [3, 7]: 83.7 fL and 74.5 fL and 81.5 fL and 77.4 fL
- MONO % [3, 7]: 7.1% and 3.5% and 4.4% and 4.8%
- NEUT % [3, 7]: 52.2% and 53.8% and 67.0% and 49.9%
- PLT [3, 7]: 449 109/L and 489 109/L and 561 109/L and 590 109/L
- RBC [3, 7]: 4.79 1012/L and 4.90 1012/L and 4.81 1012/L and 5.45 1012/L
- RET% [3, 7]: 3.65% and 0.95% and 3.41% and 1.99%
- BASO % [3, 8]: 0.1%
- BASO# [3, 8]: 0.01 109/L
- EO % [3, 9]: 0.1% and 0.4% and 0.6%
- HCT [3, 9]: 37.0% and 38.5% and 37.2% and 34.6%
- HGB [3, 9]: 117 g/L and 112 g/L and 110 g/L and 106 g/L
- LYMPH# [3, 9]: 3.39 109/L and 3.63 109/L and 4.19 109/L and 2.35 109/L
- MCH [3, 9]: 24.4 pg and 23.3 pg and 23.4 pg and 21.8 pg
- MCHC [3, 9]: 316 g/L and 291 g/L and 296 g/L and 306 g/L
- MCV [3, 9]: 77.2 fL and 80.0 fL and 79.1 fL and 71.2 fL
- MONO % [3, 9]: 3.4% and 4.0% and 2.4%
- MONO# [3, 9]: 0.53 109/L and 0.65 109/L and 0.50 109/L and 0.39 109/L
- NEUT % [3, 9]: 74.4% and 77.1% and 61.7% and 82.9%
- NEUT# [3, 9]: 11.48 109/L and 14.75 109/L and 7.71 109/L and 13.42 109/L
- PLT [3, 9]: 457 109/L and 540 109/L and 391 109/L and 474 109/L
- RBC [3, 9]: 4.79 1012/L and 4.81 1012/L and 4.70 1012/L and 4.86 1012/L
- RET# [3, 9]: 44.1 109/L and 70.7 109/L and 81.8 109/L and 74.4 109/L
- RET% [3, 9]: 0.92% and 1.47% and 1.74% and 1.53%
- WBC [3, 9]: 15.42 109/L and 19.12 109/L and 12.48 109/L and 16.18 109/L
- BASO % [3, 10]: 0.1% and 0.0%
- EO % [3, 10]: 1.7% and 0.3% and 0.8% and 1.5%
- HCT [3, 10]: 38.8% and 38.3% and 37.7% and 36.9%
- HGB [3, 10]: 109 g/L and 115 g/L and 121 g/L and 111 g/L
- LYMPH % [3, 10]: 30.4% and 27.4% and 43.1% and 40.0%
- LYMPH# [3, 10]: 4.07 109/L and 5.06 109/L and 2.56 109/L and 4.46 109/L
- MCH [3, 10]: 23.7 pg and 21.4 pg and 24.5 pg and 23.8 pg
- MCHC [3, 10]: 295 g/L and 296 g/L and 316 g/L and 294 g/L
- MCV [3, 10]: 80.2 fL and 72.3 fL and 77.7 fL and 80.9 fL
- MONO % [3, 10]: 6.3% and 6.4% and 4.1% and 7.8%
- NEUT % [3, 10]: 65.9% and 52.0% and 50.6% and 61.5%
- PLT [3, 10]: 357 109/L and 548 109/L and 451 109/L and 510 109/L
- RBC [3, 10]: 4.60 1012/L and 5.37 1012/L and 4.93 1012/L and 4.66 1012/L
- RET% [3, 10]: 1.63% and 2.23% and 2.58% and 1.36%
- WBC [3, 10]: 9.44 109/L and 12.65 109/L and 8.41 109/L and 16.30 109/L
- APTT [4, 6]: 23.2 s and 28.0 s and 25.5 s and 25.1 s
- FIB [4, 6]: 2.59 g/L and 2.84 g/L and 2.33 g/L and 2.34 g/L
- PT [4, 6]: 11.8 s and 11.0 s and 12.2 s and 11.9 s
- APTT [4, 7]: 25.3 s and 24.6 s and 24.2 s and 22.6 s
- FIB [4, 7]: 3.02 g/L and 2.81 g/L and 2.68 g/L and 2.51 g/L
- PT [4, 7]: 11.7 s and 12.2 s and 10.9 s
- APTT [4, 9]: 23.7 s and 25.2 s and 33.8 s and 27.7 s
- FIB [4, 9]: 2.71 g/L and 3.21 g/L and 2.66 g/L and 2.89 g/L
- PT [4, 9]: 11.8 s and 12.5 s and 11.7 s and 12.0 s
- APTT [4, 10]: 23.5 s and 24.9 s and 29.9 s and 27.8 s
- FIB [4, 10]: 2.90 g/L and 2.99 g/L and 2.97 g/L and 3.27 g/L
- PT [4, 10]: 11.9 s and 12.4 s and 11.8 s and 11.7 s
- CD3+CD4+ [5, 6]: 14.420% and 14.760% and 20.160% and 13.220%
- CD3+CD8+ [5, 6]: 27.140% and 25.500% and 32.040% and 35.620%
- CD3+CD4+ [5, 7]: 13.100% and 19.100% and 14.180% and 13.220%
- CD3+CD8+ [5, 7]: 41.820% and 43.140% and 47.160% and 31.220%
- CD3+CD8+ [5, 9]: 35.120% and 32.940% and 27.060% and 33.660%
- CD3+CD4+ [5, 10]: 24.420% and 20.280% and 28.260% and 22.580%
- CD3+CD8+ [5, 10]: 40.460% and 36.280% and 38.920% and 46.260%
